Measured values reported in article PMC9329436, “Optimization of the 4-anilinoquin(az)oline scaffold as epidermal growth factor receptor (EGFR) inhibitors for chordoma utilizing a toxicology profiling assay platform” (Scientific Reports, 2022).
Read-outs that look alike come from different tables or passages of the source.

What was measured:
Assay type in all cases: biochemical
[1] = target: T1, 320 wild-type protein kinases (Homo sapiens, UniProt O14757); conditions: singlicate
T1 sequence (O14757 1-476): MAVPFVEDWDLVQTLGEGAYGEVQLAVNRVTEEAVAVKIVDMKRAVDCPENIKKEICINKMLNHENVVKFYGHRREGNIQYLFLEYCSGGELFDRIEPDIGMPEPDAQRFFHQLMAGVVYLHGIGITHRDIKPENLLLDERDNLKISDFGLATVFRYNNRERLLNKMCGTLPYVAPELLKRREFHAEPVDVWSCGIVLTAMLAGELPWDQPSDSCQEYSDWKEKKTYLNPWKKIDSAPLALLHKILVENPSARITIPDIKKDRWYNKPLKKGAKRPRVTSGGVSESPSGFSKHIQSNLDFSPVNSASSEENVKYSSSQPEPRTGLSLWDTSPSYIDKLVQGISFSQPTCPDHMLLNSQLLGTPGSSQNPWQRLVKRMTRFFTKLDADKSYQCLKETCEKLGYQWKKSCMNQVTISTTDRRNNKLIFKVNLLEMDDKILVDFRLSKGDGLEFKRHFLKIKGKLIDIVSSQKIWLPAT
Text: (§1) Table S4. Profiling of two compounds at two concentrations against 320 wild-type protein kinases; singlicate measurement; Residual activities (% of control).

[2] = target: T2, 320 wild-type protein kinases (Homo sapiens, UniProt Q06418); conditions: kinase TYRO3, singlicate
T2 sequence (Q06418 41-890): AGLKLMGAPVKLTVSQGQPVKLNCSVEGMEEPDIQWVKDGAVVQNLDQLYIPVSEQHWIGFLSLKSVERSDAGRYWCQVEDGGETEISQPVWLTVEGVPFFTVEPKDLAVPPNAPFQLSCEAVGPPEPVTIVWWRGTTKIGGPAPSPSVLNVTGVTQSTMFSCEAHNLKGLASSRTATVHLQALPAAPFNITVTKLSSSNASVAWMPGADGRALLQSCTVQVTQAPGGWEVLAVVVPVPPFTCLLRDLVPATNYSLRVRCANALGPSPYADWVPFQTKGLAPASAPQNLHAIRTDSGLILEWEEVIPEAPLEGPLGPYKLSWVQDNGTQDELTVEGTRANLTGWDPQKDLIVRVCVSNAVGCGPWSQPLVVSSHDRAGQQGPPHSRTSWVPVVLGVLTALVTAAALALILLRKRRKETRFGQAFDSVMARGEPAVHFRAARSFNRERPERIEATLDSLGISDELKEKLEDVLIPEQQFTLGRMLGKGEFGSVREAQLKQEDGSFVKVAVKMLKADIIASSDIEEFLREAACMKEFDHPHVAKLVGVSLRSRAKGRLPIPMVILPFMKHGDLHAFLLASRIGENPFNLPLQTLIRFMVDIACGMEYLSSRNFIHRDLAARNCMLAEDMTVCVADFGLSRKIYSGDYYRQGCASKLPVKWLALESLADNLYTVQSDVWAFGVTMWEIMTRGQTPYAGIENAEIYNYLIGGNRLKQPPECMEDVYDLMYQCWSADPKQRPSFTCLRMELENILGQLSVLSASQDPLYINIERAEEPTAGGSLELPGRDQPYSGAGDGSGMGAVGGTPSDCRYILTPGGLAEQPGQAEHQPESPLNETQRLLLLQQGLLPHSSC
Text: as §1

[3] = target: T3, 320 wild-type protein kinases (Homo sapiens, UniProt P41743); conditions: PKC-iota, singlicate
T3 sequence (P41743 1-596): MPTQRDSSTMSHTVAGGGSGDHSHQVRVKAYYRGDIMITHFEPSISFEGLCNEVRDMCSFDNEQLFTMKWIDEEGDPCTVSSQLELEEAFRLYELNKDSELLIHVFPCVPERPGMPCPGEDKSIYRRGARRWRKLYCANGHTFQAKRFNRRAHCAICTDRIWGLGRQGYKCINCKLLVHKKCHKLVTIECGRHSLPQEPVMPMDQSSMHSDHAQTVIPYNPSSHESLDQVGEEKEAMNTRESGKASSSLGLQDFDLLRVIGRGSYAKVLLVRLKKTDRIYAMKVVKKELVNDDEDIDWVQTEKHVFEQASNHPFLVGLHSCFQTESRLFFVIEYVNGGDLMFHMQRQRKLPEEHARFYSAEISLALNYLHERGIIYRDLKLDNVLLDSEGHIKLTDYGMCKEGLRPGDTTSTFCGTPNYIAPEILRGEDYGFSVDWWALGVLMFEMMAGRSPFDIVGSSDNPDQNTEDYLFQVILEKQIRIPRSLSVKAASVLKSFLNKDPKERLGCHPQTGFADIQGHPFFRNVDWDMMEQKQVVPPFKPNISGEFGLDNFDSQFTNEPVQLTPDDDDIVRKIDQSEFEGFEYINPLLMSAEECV
Text: as §1

[4] = target: T4, 320 wild-type protein kinases (Homo sapiens, UniProt O94806); conditions: PKC-nu, singlicate
T4 sequence (O94806 1-890): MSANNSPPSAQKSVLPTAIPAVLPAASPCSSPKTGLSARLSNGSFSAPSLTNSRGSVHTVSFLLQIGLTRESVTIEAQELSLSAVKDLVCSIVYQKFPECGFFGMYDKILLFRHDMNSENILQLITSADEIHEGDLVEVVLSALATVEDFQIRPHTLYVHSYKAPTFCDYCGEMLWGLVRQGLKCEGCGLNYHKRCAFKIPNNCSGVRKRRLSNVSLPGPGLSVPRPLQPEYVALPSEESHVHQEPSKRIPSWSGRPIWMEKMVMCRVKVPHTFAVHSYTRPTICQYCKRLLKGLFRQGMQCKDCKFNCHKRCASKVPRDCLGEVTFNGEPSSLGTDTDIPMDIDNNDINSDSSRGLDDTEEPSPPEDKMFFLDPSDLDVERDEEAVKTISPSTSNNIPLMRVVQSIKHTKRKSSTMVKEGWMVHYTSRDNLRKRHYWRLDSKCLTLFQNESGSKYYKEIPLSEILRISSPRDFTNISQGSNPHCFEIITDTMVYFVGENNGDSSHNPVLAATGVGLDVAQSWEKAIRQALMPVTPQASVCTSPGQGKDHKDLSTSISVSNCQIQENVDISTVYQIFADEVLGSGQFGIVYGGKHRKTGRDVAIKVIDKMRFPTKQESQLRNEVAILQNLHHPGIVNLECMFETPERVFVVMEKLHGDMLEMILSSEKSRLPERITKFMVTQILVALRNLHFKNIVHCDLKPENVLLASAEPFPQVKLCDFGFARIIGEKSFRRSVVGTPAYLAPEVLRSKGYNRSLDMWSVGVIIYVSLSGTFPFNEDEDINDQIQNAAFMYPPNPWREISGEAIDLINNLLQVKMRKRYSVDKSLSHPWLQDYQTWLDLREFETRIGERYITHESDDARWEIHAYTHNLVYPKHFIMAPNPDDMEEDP
Text: as §1

SMILES	Residual activity ([1]; CHK1, 1.0E-06 M)	Residual activity ([1]; CHK1, 1.0E-07 M)	Residual activity, TYRO3 ([2]; assay conc. 1.0E-06 M)	Residual activity, TYRO3 ([2]; assay conc. 1.0E-07 M)	Residual activity ([3]; 1.0E-06 M)	Residual activity ([3]; 1.0E-07 M)	Residual activity ([4]; 1.0E-06 M)	Residual activity ([4]; 1.0E-07 M)
C#Cc1cc(Nc2ncnc3cc(I)ccc23)ccc1Cl [Compound 41]	85 % of control	94 % of control	91 % of control	100 % of control	104 % of control	119 % of control	86 % of control	87 % of control
C#Cc1cc(Nc2ncnc3cc(OC)c(OC)cc23)ccc1Cl [Compound 45]	74 % of control	94 % of control	58 % of control	93 % of control	96 % of control	139 % of control	84 % of control	99 % of control
